How the values were obtained:
potassium arsenate = compound: O=[As]([O-])(O)O.[K+] [potassium arsenate]; test: thermal stability z-score vs DMSO; higher = more thermally stabilized by treatment; conditions: HeLa; arsenate concentration 1 mM
Protocol: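 Cellular thermal proteome profiling in HeLa cells treated with 1 mM arsenate for 1 h (DMSO pretreatment), heated to ten temperatures (37-66.3 °C). Soluble protein was quantified by TMT mass spectrometry relative to DMSO controls; the thermal stability score was transformed to a z-score; mean of n = 3 experiments.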

lipoamide = compound: NC(=O)CCCCC1CCSS1 [lipoamide]; test: as above; conditions: HeLa, lipoamide concentration 100 µM
Protocol: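 Cellular thermal proteome profiling in HeLa cells. Cells were treated with 100 µM lipoamide for 1 h, with or without 1 mM arsenate for a further 1 h, then heated to ten temperatures (37-66.3 °C), and soluble protein was quantified by TMT mass spectrometry relative to 0.1% DMSO controls. The thermal stability score (sum of log2 fold changes minus the abundance score) was transformed to a z-score; mean of n = 3 experiments.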

[1] = arsenate co-treatment: 1 mM arsenate 1 h
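Further: each temperature applied for 3 min, abundance score taken as mean log2 fold change at the two lowest temperatures, z-score obtained by mean subtraction and division by SD.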

UniProt Q9H2U1, sequence (Q9H2U1 whole entry): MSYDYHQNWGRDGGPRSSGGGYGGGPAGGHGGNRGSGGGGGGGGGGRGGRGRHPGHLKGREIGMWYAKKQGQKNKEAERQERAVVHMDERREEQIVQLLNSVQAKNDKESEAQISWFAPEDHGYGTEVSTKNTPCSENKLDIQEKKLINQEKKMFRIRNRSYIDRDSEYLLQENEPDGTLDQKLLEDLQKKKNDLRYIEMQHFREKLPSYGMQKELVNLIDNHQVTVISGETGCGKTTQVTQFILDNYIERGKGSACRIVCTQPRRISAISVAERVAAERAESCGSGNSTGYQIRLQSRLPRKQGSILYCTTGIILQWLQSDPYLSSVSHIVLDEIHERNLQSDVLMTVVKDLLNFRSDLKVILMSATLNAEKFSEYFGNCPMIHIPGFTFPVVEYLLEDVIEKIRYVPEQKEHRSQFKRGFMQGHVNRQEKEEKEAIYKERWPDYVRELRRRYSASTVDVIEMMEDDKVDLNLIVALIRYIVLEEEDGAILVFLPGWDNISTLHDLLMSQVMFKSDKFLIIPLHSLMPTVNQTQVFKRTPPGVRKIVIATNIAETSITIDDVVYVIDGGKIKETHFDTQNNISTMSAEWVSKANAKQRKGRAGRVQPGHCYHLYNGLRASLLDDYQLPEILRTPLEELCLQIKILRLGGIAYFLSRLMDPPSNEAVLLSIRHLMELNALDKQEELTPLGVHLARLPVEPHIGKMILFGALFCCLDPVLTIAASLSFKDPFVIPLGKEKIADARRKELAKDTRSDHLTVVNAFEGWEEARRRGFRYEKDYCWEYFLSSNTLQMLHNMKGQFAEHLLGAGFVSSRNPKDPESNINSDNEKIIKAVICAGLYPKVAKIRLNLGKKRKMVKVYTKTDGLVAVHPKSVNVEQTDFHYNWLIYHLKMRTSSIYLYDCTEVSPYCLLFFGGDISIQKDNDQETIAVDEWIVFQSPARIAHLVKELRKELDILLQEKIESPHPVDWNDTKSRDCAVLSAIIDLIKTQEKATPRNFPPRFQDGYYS
UniProt Q13951, sequence (Q13951 whole entry): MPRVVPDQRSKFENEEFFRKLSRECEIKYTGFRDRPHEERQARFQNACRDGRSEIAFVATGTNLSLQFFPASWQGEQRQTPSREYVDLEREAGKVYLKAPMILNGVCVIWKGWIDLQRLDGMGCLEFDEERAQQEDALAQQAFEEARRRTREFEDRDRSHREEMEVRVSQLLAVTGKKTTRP
UniProt Q9C0E2, sequence (Q9C0E2 whole entry): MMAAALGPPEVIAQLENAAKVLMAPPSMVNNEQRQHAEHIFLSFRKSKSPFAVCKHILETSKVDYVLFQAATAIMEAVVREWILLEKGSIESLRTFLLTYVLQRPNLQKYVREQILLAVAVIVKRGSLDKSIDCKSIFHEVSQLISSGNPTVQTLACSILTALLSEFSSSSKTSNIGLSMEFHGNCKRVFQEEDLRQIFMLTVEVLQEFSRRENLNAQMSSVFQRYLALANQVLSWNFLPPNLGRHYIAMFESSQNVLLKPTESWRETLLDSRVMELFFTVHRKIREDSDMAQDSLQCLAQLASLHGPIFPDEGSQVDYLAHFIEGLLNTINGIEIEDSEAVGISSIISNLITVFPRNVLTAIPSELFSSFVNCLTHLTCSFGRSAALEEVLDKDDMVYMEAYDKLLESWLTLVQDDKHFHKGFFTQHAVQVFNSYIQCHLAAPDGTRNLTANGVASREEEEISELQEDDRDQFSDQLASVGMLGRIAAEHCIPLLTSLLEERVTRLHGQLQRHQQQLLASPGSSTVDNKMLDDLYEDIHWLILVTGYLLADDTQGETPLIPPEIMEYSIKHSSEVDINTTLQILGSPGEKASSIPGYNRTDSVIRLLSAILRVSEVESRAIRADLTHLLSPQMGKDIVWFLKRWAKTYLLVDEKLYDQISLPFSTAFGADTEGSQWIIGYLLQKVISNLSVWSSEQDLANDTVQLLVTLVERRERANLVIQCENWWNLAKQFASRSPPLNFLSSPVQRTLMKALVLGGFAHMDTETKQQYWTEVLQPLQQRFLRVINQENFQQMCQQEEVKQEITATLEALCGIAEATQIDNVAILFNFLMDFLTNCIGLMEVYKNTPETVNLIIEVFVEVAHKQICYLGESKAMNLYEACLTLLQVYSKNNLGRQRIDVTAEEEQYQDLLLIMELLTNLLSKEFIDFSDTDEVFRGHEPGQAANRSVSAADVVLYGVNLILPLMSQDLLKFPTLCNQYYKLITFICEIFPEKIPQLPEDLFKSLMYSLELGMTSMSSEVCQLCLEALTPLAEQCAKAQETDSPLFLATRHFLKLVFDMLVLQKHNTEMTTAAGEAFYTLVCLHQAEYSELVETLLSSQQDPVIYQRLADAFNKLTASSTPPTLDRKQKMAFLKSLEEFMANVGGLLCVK
UniProt Q9BQ70, sequence (Q9BQ70 whole entry): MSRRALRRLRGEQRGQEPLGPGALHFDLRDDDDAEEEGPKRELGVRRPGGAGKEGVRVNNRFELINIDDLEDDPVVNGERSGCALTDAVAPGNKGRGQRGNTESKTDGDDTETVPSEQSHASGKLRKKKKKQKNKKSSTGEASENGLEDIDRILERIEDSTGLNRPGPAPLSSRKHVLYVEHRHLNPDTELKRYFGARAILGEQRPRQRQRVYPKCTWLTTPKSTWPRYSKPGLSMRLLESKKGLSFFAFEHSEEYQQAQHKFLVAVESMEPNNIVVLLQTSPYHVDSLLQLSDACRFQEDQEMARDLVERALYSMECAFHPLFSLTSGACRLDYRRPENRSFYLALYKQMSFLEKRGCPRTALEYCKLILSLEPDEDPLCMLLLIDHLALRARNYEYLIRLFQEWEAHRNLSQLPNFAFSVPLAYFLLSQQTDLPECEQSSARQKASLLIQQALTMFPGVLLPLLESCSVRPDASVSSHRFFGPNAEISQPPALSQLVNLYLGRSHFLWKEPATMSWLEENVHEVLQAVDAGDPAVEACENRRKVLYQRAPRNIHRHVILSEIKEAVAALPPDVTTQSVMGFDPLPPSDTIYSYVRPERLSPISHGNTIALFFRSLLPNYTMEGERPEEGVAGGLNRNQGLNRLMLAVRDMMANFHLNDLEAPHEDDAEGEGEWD
UniProt Q9Y3A4, sequence (Q9Y3A4 whole entry): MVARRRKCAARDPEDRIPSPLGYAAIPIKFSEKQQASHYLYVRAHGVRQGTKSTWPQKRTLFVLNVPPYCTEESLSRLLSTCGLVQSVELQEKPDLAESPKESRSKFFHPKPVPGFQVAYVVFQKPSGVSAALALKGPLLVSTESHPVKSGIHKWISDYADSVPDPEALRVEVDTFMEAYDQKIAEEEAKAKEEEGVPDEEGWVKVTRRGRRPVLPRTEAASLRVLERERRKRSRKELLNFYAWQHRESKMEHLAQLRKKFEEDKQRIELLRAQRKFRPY
UniProt Q8IV48, sequence (Q8IV48 whole entry): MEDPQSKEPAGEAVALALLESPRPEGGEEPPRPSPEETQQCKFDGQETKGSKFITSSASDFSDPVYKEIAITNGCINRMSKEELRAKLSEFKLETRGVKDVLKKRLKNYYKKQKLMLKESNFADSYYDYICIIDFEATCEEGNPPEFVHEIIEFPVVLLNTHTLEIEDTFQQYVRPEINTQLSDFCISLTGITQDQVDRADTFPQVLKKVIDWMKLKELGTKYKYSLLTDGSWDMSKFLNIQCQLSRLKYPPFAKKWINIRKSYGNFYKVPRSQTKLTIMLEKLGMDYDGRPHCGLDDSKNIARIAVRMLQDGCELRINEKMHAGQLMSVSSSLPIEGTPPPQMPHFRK
UniProt Q9NQC3, sequence (Q9NQC3 whole entry): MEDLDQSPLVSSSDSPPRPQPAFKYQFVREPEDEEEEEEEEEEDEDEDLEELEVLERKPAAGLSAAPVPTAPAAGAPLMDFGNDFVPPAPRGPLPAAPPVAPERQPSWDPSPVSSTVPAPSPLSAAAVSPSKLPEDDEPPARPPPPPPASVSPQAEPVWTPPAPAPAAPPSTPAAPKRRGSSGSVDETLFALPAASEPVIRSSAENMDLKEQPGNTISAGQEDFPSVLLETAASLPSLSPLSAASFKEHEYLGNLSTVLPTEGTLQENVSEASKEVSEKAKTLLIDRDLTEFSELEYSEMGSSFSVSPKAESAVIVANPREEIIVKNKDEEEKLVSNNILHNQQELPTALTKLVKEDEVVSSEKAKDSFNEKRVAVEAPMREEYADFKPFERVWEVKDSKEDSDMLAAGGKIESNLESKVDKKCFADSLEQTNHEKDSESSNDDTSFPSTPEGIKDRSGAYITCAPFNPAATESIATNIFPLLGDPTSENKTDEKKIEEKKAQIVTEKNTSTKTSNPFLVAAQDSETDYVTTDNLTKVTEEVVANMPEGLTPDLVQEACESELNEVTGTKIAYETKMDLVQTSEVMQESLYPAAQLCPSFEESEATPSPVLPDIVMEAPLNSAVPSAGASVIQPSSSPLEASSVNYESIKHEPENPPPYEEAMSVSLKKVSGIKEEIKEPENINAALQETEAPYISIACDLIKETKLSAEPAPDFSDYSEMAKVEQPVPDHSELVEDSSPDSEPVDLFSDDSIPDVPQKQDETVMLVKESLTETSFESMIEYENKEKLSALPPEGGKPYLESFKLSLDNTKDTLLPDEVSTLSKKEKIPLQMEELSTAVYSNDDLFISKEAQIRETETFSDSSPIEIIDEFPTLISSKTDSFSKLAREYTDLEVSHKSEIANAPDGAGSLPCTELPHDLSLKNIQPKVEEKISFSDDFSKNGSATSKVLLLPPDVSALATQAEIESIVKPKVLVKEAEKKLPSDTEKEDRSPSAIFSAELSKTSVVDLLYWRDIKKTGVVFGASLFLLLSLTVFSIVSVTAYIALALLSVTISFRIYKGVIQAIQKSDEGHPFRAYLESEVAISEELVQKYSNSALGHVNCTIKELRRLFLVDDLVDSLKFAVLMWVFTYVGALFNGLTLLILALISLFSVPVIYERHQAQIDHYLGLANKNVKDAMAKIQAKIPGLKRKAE
UniProt Q8WZA0, sequence (Q8WZA0 whole entry): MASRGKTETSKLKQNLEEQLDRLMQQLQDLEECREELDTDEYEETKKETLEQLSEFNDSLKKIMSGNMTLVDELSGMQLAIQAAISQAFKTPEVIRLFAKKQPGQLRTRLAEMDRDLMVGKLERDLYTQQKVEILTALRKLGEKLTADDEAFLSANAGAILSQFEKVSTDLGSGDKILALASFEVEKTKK

Target	thermal stability z-score (potassium arsenate)	thermal stability z-score (lipoamide; [1])	thermal stability z-score (lipoamide; arsenate co-treatment: none)
VPS45 (UniProt Q9NRW7)	0.0668	0.546	0.434
PRKCI (UniProt P41743)	-0.914	-0.507	-0.312
PYROXD1 (UniProt Q8WU10)	-1.15	0.569	0.443
DHFR (UniProt P00374)	0.324	-0.995	-0.563
GLUD1 (UniProt P00367)	-0.578	-1.37	-0.412
NCAPH (UniProt Q15003)	0.387	-1.04	-0.316
TYW3 (UniProt Q6IPR3)	-0.177	-0.419	0.332
LZIC (UniProt Q8WZA0)	0.906	0.558	0.781
DHX32 (UniProt Q7L7V1)	0.629	-1.73	-1.67
SRGAP2 (UniProt O75044)	0.309	-0.272	-0.287
CDKN2A	0.466	0.99	1.64
WDFY1 (UniProt Q8IWB7)	-1.85	-0.112	-0.423
ERI3 (UniProt O43414)	0.102	0.468	0.154
ERI1 (UniProt Q8IV48)	-1.14	0.0943	0.343
CLTA (UniProt P09496)	0.655	1.35	1.54
RRS1 (UniProt Q15050)	-2.24	1.32	-0.132
MVK (UniProt Q03426)	-0.675	-0.352	-0.323
TMEM97 (UniProt Q5BJF2)	0.108	0.385	0.189
GNPNAT1 (UniProt Q96EK6)	-1.03	0.365	-0.348
PLPP3 (UniProt O14495)	0.384	0.394	0.448
ZMIZ2 (UniProt Q8NF64)	-0.482	-0.177	-0.321
A0A0C4DFX4|SRCAP	-0.111	0.121	-0.226
APEH (UniProt P13798)	0.225	0.391	0.223
EXOSC4 (UniProt Q9NPD3)	-0.872	0.821	-0.104
POLR2A (UniProt P24928)	-0.684	0.89	0.82
UGP2 (UniProt Q16851)	0.872	0.388	-0.0879
YPEL5 (UniProt P62699)	-0.117	-0.116	-0.259
RRP7A (UniProt Q9Y3A4)	-0.216	0.108	-0.213

Target	thermal stability z-score (potassium arsenate)	thermal stability z-score (lipoamide; [1])	thermal stability z-score (lipoamide; arsenate co-treatment: none)
C1GALT1 (UniProt Q9NS00)	-0.0716	-0.00802	-0.575
ENSA (UniProt O43768)	0.481	0.841	0.567
RPL3 (UniProt P39023)	-0.75	0.408	-0.0552
PPM1A (UniProt P35813)	-0.154	0.622	0.096
SKA1 (UniProt Q96BD8)	-0.0935	-0.047	0.0119
EMG1 (UniProt Q92979)	-0.383	-0.357	-0.428
ATP5A1 (UniProt P25705)	-0.382	-0.144	-0.0322
PMM2 (UniProt O15305)	1.4	-0.186	0.197
GMIP (UniProt Q9P107)	-0.0798	-0.232	-0.0407
MCTS1 (UniProt Q9ULC4)	-1.02	-0.523	-0.0571
SUN2 (UniProt Q9UH99)	-0.0506	-1.43	-1.36
TRIM3 (UniProt O75382)	-0.044	0.012	0.061
RETSAT (UniProt Q6NUM9)	-0.259	0.0873	0.172
RTN4 (UniProt Q9NQC3)	0.413	0.244	0.711
ATP1B1 (UniProt P05026)	-0.201	0.104	-0.207
DHX36 (UniProt Q9H2U1)	-0.0639	-0.0301	-0.0965
CBFB (UniProt Q13951)	0.352	-0.0158	-0.159
XPO4 (UniProt Q9C0E2)	-0.27	-0.237	-0.0735
TCF25 (UniProt Q9BQ70)	-0.542	-0.802	-0.429
CDKAL1 (UniProt Q5VV42)	-0.903	1.09	0.835
DUSP23 (UniProt Q9BVJ7)	-0.0505	1.22	0.839
GAPDH (UniProt P04406)	-1.5	-1.1	-0.00491
TRAPPC11 (UniProt Q7Z392)	-0.537	-0.549	-1.8
YWHAH (UniProt Q04917)	0.138	0.0489	0.303
RPL26 (UniProt P61254)	-0.347	1.18	0.347
HSPA9 (UniProt P38646)	-1.36	-1.1	-0.531
XPNPEP1 (UniProt Q9NQW7)	-0.738	1.5	0.794

From the supplement of paper PMC12463676, “Small-molecule dissolution of stress granules by redox modulation benefits ALS models” (Nature Chemical Biology, 2025)
